# Test system: monkey middle cerebral artery permanent occlusion model
# Test: Brain injury volume and neurological deficit in monkey middle cerebral artery permanent occlusion model
# Type: in vivo, Macaca fascicularis
# Settings: for spread of the cerebral infarction region (brain injury volume, MRI FLAIR): 5 mg/kg orally twice a day, FIG. 5
# Procedure: In monkey middle cerebral artery permanent occlusion model, the brain injury volume was measured by MR^1 (FLAIR method) one day and seven days after occlusion. Test compound A (5 mg/kg) dissolved in 0.5% tragacanth was repeatedly administered orally twice a day for 14 days. As for neurological score, the neurological function was evaluated by scoring the consciousness, perception, motility and muscular commands.
# The middle cerebral artery permanent occlusion was conducted according to the method of Furuichi et al. (Furuichi, Y et al., J. Cereb. Blood Flow Metab., 23, 1183-1194, 2003), which is specifically as follows. Macaca fascicularis fasted in advance for 12 hr or longer was anesthetized by intramuscular administration of ketamine hydrochloride (10 mg/kg), anesthetized by intravenous administration of pentobarbital sodium (25 mg/kg) and fixed on an operating table. About 5 mm holes were made near foramen ovale and orbital fissure with a dental drill, dura mater and arachnoid mater were incised, and the middle cerebral artery trunk near the internal carotid artery bifurcation area was exposed. The middle cerebral artery trunk near the internal carotid artery bifurcation area was obstructed by electric coagulation to form cerebral infarction.
# Test compound A was orally administered within 1 hr and 6 hr after middle cerebral artery occlusion and within 30 min after feeding in the morning and evening (twice a day) from the next day for 14 days.
smiles,measurement,setting,value
"CC(=O)NC1(c2ccc(CN3CCN(c4ncccn4)CC3)cc2)CC1.Cl [test compound A, N-(1-(4-((4-(pyrimidin-2-yl)piperazin-1-yl)methyl)phenyl)cyclopropyl)acetamide•hydrochloride]",neurological deficit (neurological function score),"5 mg/kg orally twice a day for 14 days, FIG. 6",neurological deficit-ameliorating effect
same,"spread of the cerebral infarction region (brain injury volume, MRI FLAIR)",1 day after occlusion,suppressive action
same,"spread of the cerebral infarction region (brain injury volume, MRI FLAIR)",7 days after occlusion,suppressive action
